From article PMC10023787, “Trio-pharmacophore DNA-encoded chemical library for simultaneous selection of fragments and linkers” (Nature Communications, 2023)

Key:
MMP-2 [1] = target: T1, MMP-2 (Homo sapiens, UniProt P08253); assay: Dynamic dual-pharmacophore DEL selection against MMP-2, NGS decoding; format: binding; settings: for MMP2 3L Enrichment Fold: 3L library (Supplementary fig 13); for MMP2 3L Count: 3L library; for MMP2 3L Count / MMP2 5L Count: sequence count (Supplementary fig 13); for MMP2 5L Enrichment Fold: 5L library (Supplementary fig 13); for MMP2 5L Count: 5L library
T1 construct: purchased Sino Biological 10082-HNAH
T1 sequence (P08253 110-660): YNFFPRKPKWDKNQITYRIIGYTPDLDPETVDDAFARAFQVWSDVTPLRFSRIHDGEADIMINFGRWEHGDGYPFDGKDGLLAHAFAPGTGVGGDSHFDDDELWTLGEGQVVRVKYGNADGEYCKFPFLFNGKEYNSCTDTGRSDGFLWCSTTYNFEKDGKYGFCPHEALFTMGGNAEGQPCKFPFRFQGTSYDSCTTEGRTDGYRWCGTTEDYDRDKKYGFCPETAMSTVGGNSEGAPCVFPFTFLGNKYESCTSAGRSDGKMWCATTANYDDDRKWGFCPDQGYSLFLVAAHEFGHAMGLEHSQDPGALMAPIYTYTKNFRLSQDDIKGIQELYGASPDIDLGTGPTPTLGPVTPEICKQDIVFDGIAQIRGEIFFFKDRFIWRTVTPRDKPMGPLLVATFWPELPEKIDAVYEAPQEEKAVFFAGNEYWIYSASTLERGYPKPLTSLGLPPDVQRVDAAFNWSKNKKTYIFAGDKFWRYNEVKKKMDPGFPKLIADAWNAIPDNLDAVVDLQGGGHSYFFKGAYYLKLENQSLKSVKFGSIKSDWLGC
Text: (§1) Matrix metalloproteinases (MMPs) are zinc-dependent endopeptidases capable of degrading and remodeling extracellular matrix components[46],[47]. They are attractive therapeutic targets as high expression levels were detected in various diseases, such as inflammatory diseases, and at different stages of cancers, including metastasis, invasion, and angiogenesis[47]–[53]. As shown in Supplementary Fig. 3c, we performed selections against the two gelatinases (human MMP-2 and human MMP-9) to identify binding fragments for later design and synthesis of small molecule inhibitors. After selection, the three sub-libraries were decoded, and the enrichment was calculated by dividing the post-selection fraction (count/total counts) by the pre-selection fraction (Fig. 4a and Supplementary Fig. 13).
(§2) 4 µg of MMP-2/MMP-9 was dissolved in 100 µl of selection buffer containing 25 mM Tris-base, 10 mM CaCl2, 150 mM NaCl, 0.05% Tween 20, pH 7.5. 10 µl of 4-Aminophenylmercuric acetate (APMA) (100 mM) solution was added to the protein solution and incubated at 37 °C for 1 h. After activation, the solution was added on top of 40 µl pre-washed Ni-NTA resin and incubated for 30 min on a rotary shaker. The supernatant was discarded, and the resin was washed three times with the selection buffer.
(§3) For each independent selection, three sub-libraries were mixed in the selection buffer with a final concentration of 40 nM of each sub-library in 100 µl. The mixture was heat denatured at 90 °C for 1 min and slowly cooled down to allow the formation of the trio-pharmacophore library. The dynamic dual-pharmacophore DEL was provided by DyNAbind GmbH (Merck, DYNA001).
(§4) The assembled library was incubated with the protein-bound solid support for 2 h at RT on a rotary shaker. In parallel, selection on bare solid support served as the negative control to exclude promiscuous binders on the resin. After panning, the supernatant was discarded, and the resin was washed three times with 1 ml selection buffer. Finally, 100 µl of 50 mM Tris buffer, pH 7.4 was added to resuspend the resin and the resin was incubated at 95 °C for 5 min to denature the protein, release, and collect the bound library members.
(§5) The eluted library members were subjected to sample preparation for NGS. NGS preparation was achieved by two-step PCR. First, the individual selection was indexed using primers containing unique sequences corresponding to each selection. The amplified product was purified from 2% agarose gel. Second, the purified DNA from all selections were pooled in equal amount and subjected to the 2nd PCR step to attach sequences compatible with the NGS flow cell and the sequencing primers. NGS was performed by Novogene UK with Novaseq 6000. Raw data files (fastq files) obtained were decoded using a custom python script and excel. The sequence reads corresponding to each sample was retrieved by searching for the correct index unique to each selection. Then, the code region was extracted from each sequence and assigned to the corresponding identity. The count of each code in each selection sample was obtained by looping through the total reads and counting the occurrence of each code. The enrichment fold of each compound was calculated by first, dividing the count by the total count to get the abundance, second, the abundance after the selection was divided by the abundance of pre-selection to reflect the distribution change of the compound. Next, the enrichment fold was plotted against the count for each member of the library to give the scatter plots as in Fig. 4.

MMP-2 [2] = target: T1, MMP-2; assay: De novo T-DEL selection against MMP-2, NGS decoding; format: binding; settings: for Enrichment Fold / Count: MMP2 selection; for Count: NGS sequence count per Compound ID (Figure 4a)
Text: as §1, §2, §3, §4, §5

[3] = NGS sequence count of sub-library SL-A building block, de novo T-DEL selection against MMP-2
[4] = NGS sequence count of sub-library SL-C building block, de novo T-DEL selection against MMP-2
[5] = sub-library SL-A building block, de novo T-DEL selection against MMP-2
[6] = sub-library SL-C building block, de novo T-DEL selection against MMP-2
[7] = MMP2 3L (3' sub-library members)
[8] = MMP2 3L (3' sub-library members), NGS sequence count after selection
[9] = enrichment fold of sub-library SL-C member, MMP-2 selection, Figure 4a source data
[10] = sequence count of sub-library SL-C member, MMP-2 selection, Figure 4a source data

SMILES	Enrichment Fold (MMP-2 [1]; MMP2 selection, 3L sub-library)	Enrichment Fold (MMP-2 [1]; MMP2 selection, 5L sub-library)	MMP2 3L Enrichment Fold (MMP-2 [1]; MMP2 selection)	MMP2 3L Count (MMP-2 [1]; MMP2 selection)	MMP2 5L Enrichment Fold (MMP-2 [1]; MMP2 selection)	MMP2 5L Count (MMP-2 [1]; MMP2 selection)	MMP2 SL-A Count (MMP-2 [2]; [3])	MMP2 SL-C Count (MMP-2 [2]; [4])	MMP2 SL-A Enrichment Fold (MMP-2 [2]; [5])	MMP2 SL-C Enrichment Fold (MMP-2 [2]; [6])	Enrichment Fold (MMP-2 [1]; [7])	Count (MMP-2 [1]; [8])	MMP2 SL-C Enrichment Fold (MMP-2 [2]; [9])	MMP2 SL-C Count (MMP-2 [2]; [10])	further results
O=C(O)CNC(=O)NC12CC3CC(CC(C3)C1)C2 [Compound 66]	1.69	1.932	–	–	–	–	–	–	–	–	–	–	–	–	Count (MMP-2 [1]; MMP2 selection, 3L sub-library, NGS sequence count): 477; Count (MMP-2 [1]; MMP2 selection, 5L sub-library, NGS sequence count): 4327; Enrichment Fold (MMP-2 [2]; sub-library SL-A (Figure 4a)): 8.24; Count (MMP-2 [2]; sub-library SL-A): 13510; Enrichment Fold (MMP-2 [2]; sub-library SL-C (Figure 4a)): 0.3913; Count (MMP-2 [2]; sub-library SL-C): 81
O=C(O)Cn1cnc2c(oc3ccccc32)c1=O [Compound 182]	1.088	1.688	–	–	–	–	–	–	–	–	–	–	–	–	Count (MMP-2 [1]; MMP2 selection, 3L sub-library, sequence count per compound ID): 1179; Count (MMP-2 [1]; MMP2 selection, 5L sub-library, sequence count per compound ID): 5803; MMP2 SL-A Count (MMP-2 [2]; NGS sequence count per SL-A member, de novo T-DEL selection against MMP-2 (Figure 4a source data)): 3616; MMP2 SL-C Count (MMP-2 [2]; NGS sequence count per SL-C member, de novo T-DEL selection against MMP-2 (Figure 4a source data)): 971; MMP2 SL-A Enrichment Fold (MMP-2 [2]; enrichment fold per SL-A member, de novo T-DEL selection against MMP-2 (Figure 4a source data)): 1.934; MMP2 SL-C Enrichment Fold (MMP-2 [2]; enrichment fold per SL-C member, de novo T-DEL selection against MMP-2 (Figure 4a source data)): 0.9721
Cc1cc(=O)[nH]c(-n2nc(C)c(CCC(=O)O)c2C)n1 [Compound 693]	–	–	0.8647	991	3.023	6628	3710	1010	2.312	1.213	–	–	–	–	–
NCc1c[nH]nn1 [Compound 787]	–	–	3.194	2558	0.7494	713	589	2395	0.846	2.519	–	–	–	–	–
Cn1c(O)nc2cc(C(=O)O)cnc21 [Compound 826]	–	–	–	–	2.035	2158	1212	–	1.562	–	11.3583	12779	2.518	5893	–
O=C(O)c1cncc(O)c1 [Compound 828]	–	–	–	–	–	–	–	–	–	–	6.248	14566	4.434	13025	–
